Measurements reported in patent publication US8802597B2, “Herbicidal pyrimidines” (E I du Pont de Nemours and Company, priority 2003, dated 2014).

Tests used:
Assay type in all cases: in vivo
[1] = tested on: giant foxtail (Setaria faberi); experiment: Test A pre/postemergence
How it was run: (§1)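 Seeds in loam–sand blend received preemergence directed soil spray and, concurrently, postemergence application (plants 2–10 cm, 1–2-leaf stage) of compound in non-phytotoxic solvent with surfactant. After about ten days in greenhouse, injury rated visually versus untreated controls, 0 (no effect) to 100 (complete control).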

[2] = tested on: crabgrass (Digitaria sanguinalis); experiment: Test A pre/postemergence
How it was run: as §1

[3] = tested on: barnyardgrass (Echinochloa crus-galli); experiment: Test A pre/postemergence
How it was run: as §1

[4] = tested on: redroot pigweed (Amaranthus retroflexus); experiment: Test A pre/postemergence
How it was run: as §1

[5] = tested on: morningglory (Ipomoea spp.); experiment: Test A pre/postemergence
How it was run: as §1

[6] = tested on: velvetleaf (Abutilon theophrasti); experiment: Test A pre/postemergence
How it was run: as §1

[7] = tested on: junglerice (Echinochloa colona); experiment: Test E flooded paddy water application; conditions: Flood, 21 days, scale 0 to 100 (0 no effect, 100 complete control)
Excerpt: (§2) Three plastic pots (ca. 16-cm diameter) per rate were partially filled with sterilized Tama silt loam soil comprising a 35:50:15 ratio of sand, silt and clay and 2.6% organic matter. Separate plantings for each of the three pots were as follows. Seeds from the U.S. of ducksalad (Heteranthera limosa), smallflower umbrella sedge (Cyperus difformis) and purple redstem (Ammannia coccinea), were planted into one 16-cm pot for each rate. Seeds from the U.S. of rice flatsedge (Cyperus iria), bearded (brdd.) sprangletop (Leptochloa fusca ssp. fascicularis), one stand of 9 or 10 water seeded rice seedlings (Oryza sativa cv. ‘Japonica-M202’), and one stand of 6 transplanted rice seedlings (Oryza sativa cv. ‘Japonica-M202’) were planted into one 16-cm pot for each rate. Seeds from the U.S. of barnyardgrass (Echinochloa crus-galli), late watergrass (Echinochloa oryzicola), early watergrass (Echinochloa oryzoides) and junglerice (Echinochloa colona) were planted into one 16-cm pot for each rate. Plantings were sequential so that crop and weed species were at the 2.0 to 2.5-leaf stage at time of treatment.
(§3) Potted plants were grown in a greenhouse with day/night temperature settings of 29.5/26.7° C., and supplemental balanced lighting was provided to maintain a 16-hour photoperiod. Test pots were maintained in the greenhouse until test completion.
(§4) At time of treatment, test pots were flooded to 3 cm above the soil surface, treated by application of test compounds directly to the paddy water, and then maintained at that water depth for the duration of the test. Effects of treatments on rice and weeds were visually evaluated by comparison to untreated controls after 21 days. Plant response ratings, summarized in Table E, are based on a scale of 0 to 100 where 0 is no effect and 100 is complete control. A dash (-) response means no test result.

[8] = tested on: early watergrass (Echinochloa oryzoides); experiment: Test E flooded paddy water application; conditions: Flood, 21 days, scale 0 to 100 (0 no effect, 100 complete control)
Excerpt: as §2, §3, §4

[9] = tested on: purple redstem (Ammannia coccinea); experiment: Test E flooded paddy water application; conditions: Flood, 21 days, scale 0 to 100 (0 no effect, 100 complete control)
Excerpt: as §2, §3, §4

[10] = tested on: ducksalad (Heteranthera limosa); experiment: Test E flooded paddy water application; conditions: Flood, 21 days, scale 0 to 100 (0 no effect, 100 complete control)
Excerpt: as §2, §3, §4

[11] = tested on: barnyardgrass (Echinochloa crus-galli); experiment: Test E flooded paddy water application; conditions: Flood, 21 days, scale 0 to 100 (0 no effect, 100 complete control)
Excerpt: as §2, §3, §4

[12] = tested on: transplanted rice seedlings (Oryza sativa cv. ‘Japonica-M202’); experiment: Test E flooded paddy water application; conditions: Flood, 21 days, scale 0 to 100 (0 no effect, 100 complete control)
Excerpt: as §2, §3, §4

[13] = tested on: water seeded rice seedlings (Oryza sativa cv. ‘Japonica-M202’); experiment: Test E flooded paddy water application; conditions: Flood, 21 days, scale 0 to 100 (0 no effect, 100 complete control)
Excerpt: as §2, §3, §4

[14] = tested on: late watergrass (Echinochloa oryzicola); experiment: Test E flooded paddy water application; conditions: Flood, 21 days, scale 0 to 100 (0 no effect, 100 complete control)
Excerpt: as §2, §3, §4

[15] = tested on: rice flatsedge (Cyperus iria); experiment: Test E flooded paddy water application; conditions: Flood, 21 days, scale 0 to 100 (0 no effect, 100 complete control)
Excerpt: as §2, §3, §4

[16] = tested on: bearded (brdd.) sprangletop (Leptochloa fusca ssp. fascicularis); experiment: Test E flooded paddy water application; conditions: Flood, 21 days, scale 0 to 100 (0 no effect, 100 complete control)
Excerpt: as §2, §3, §4

[17] = Postemergence, 125 g ai/ha, 0 to 100 scale (0 no effect, 100 complete control)
[18] = Postemergence, 500 g ai/ha, 0 to 100 scale (0 no effect, 100 complete control)
[19] = Preemergence, 125 g ai/ha, 0 to 100 scale where 0 is no effect and 100 is complete control, approximately ten days
[20] = Preemergence, 500 g ai/ha, 0 to 100 scale where 0 is no effect and 100 is complete control, approximately ten days

## CCOC(=O)c1nc(-c2ccc(CC)cc2)nc(N)c1Cl [Compound 99]
[1]; [17]
  Plant response rating, Foxtail, Giant: 0
[1]; [18]
  Plant response rating, Foxtail, Giant: 0
[1]; [19]
  Plant response rating, Foxtail, Giant: 0
[1]; [20]
  Plant response rating, Foxtail, Giant: 0
[2]; [17]
  Plant response rating, Crabgrass: 0
[2]; [18]
  Plant response rating, Crabgrass: 0
[2]; [19]
  Plant response rating, Crabgrass: 0
[2]; [20]
  Plant response rating, Crabgrass: 0
[3]; [17]
  Plant response rating, Barnyardgrass: 0
[3]; [18]
  Plant response rating, Barnyardgrass: 0
[3]; [19]
  Plant response rating, Barnyardgrass: 0
[3]; [20]
  Plant response rating, Barnyardgrass: 0
[4]; [17]
  Plant response rating, Pigweed: 5
[4]; [18]
  Plant response rating, Pigweed: 10
[4]; [19]
  Plant response rating, Pigweed: 0
[4]; [20]
  Plant response rating, Pigweed: 0
[5]; [17]
  Plant response rating, Morningglory: 0
[5]; [18]
  Plant response rating, Morningglory: 0
[5]; [19]
  Plant response rating, Morningglory: 0
[5]; [20]
  Plant response rating, Morningglory: 0
[6]; [17]
  Plant response rating, Velvetleaf: 0
[6]; [18]
  Plant response rating, Velvetleaf: 35
[6]; [19]
  Plant response rating, Velvetleaf: 0
[6]; [20]
  Plant response rating, Velvetleaf: 0
[7]; 32 g ai/ha
  Junglerice plant response rating: 0
[7]; 64 g ai/ha
  Junglerice plant response rating: 0
[7]; 125 g ai/ha
  Junglerice plant response rating: 0
[7]; 250 g ai/ha
  Junglerice plant response rating: 0
[7]; 16 g ai/ha
  Plant response rating, Junglerice: 0
[8]; 32 g ai/ha
  Watergrass, Early plant response rating: 0
[8]; 64 g ai/ha
  Watergrass, Early plant response rating: 0
[8]; 125 g ai/ha
  Watergrass, Early plant response rating: 0
[8]; 250 g ai/ha
  Watergrass, Early plant response rating: 0
[8]; 16 g ai/ha
  Plant response rating, Watergrass, Early: 0
[9]; 32 g ai/ha
  Redstem plant response rating: 0
[9]; 125 g ai/ha
  Redstem plant response rating: 0
[9]; 250 g ai/ha
  Redstem plant response rating: 45
[9]; 16 g ai/ha
  Plant response rating, Redstem: 0
[10]; 32 g ai/ha
  Ducksalad plant response rating: 100
[10]; 64 g ai/ha
  Ducksalad plant response rating: 100
[10]; 125 g ai/ha
  Ducksalad plant response rating: 100
[10]; 250 g ai/ha
  Ducksalad plant response rating: 100
[10]; 16 g ai/ha
  Plant response rating, Ducksalad: 95
[11]; 32 g ai/ha
  Barnyardgrass plant response rating: 0
[11]; 64 g ai/ha
  Barnyardgrass plant response rating: 0
[11]; 125 g ai/ha
  Barnyardgrass plant response rating: 0
[11]; 250 g ai/ha
  Barnyardgrass plant response rating: 0
[11]; 16 g ai/ha
  Plant response rating, Barnyardgrass: 0
[12]; 32 g ai/ha
  Rice, Transplanted plant response rating: 0
[12]; 64 g ai/ha
  Rice, Transplanted plant response rating: 0
[12]; 125 g ai/ha
  Rice, Transplanted plant response rating: 0
[12]; 250 g ai/ha
  Rice, Transplanted plant response rating: 20
[12]; 16 g ai/ha
  Plant response rating, Rice, Transplanted: 0
[13]; 32 g ai/ha
  Rice, Water Seeded plant response rating: 0
[13]; 64 g ai/ha
  Rice, Water Seeded plant response rating: 0
[13]; 125 g ai/ha
  Rice, Water Seeded plant response rating: 20
[13]; 250 g ai/ha
  Rice, Water Seeded plant response rating: 20
[13]; 16 g ai/ha
  Plant response rating, Rice, Water Seeded: 0
[14]; 32 g ai/ha
  Watergrass, Late plant response rating: 0
[14]; 64 g ai/ha
  Watergrass, Late plant response rating: 0
[14]; 125 g ai/ha
  Watergrass, Late plant response rating: 0
[14]; 250 g ai/ha
  Watergrass, Late plant response rating: 0
[14]; 16 g ai/ha
  Plant response rating, Watergrass, Late: 0
[15]; 64 g ai/ha
  Flatsedge, Rice plant response rating: 100
[15]; 125 g ai/ha
  Flatsedge, Rice plant response rating: 100
[15]; 250 g ai/ha
  Flatsedge, Rice plant response rating: 100
[15]; 16 g ai/ha
  Plant response rating, Flatsedge, Rice: 100
[16]; 32 g ai/ha
  Sprangletop, Brdd. plant response rating: 0
[16]; 64 g ai/ha
  Sprangletop, Brdd. plant response rating: 0
[16]; 125 g ai/ha
  Sprangletop, Brdd. plant response rating: 0
[16]; 250 g ai/ha
  Sprangletop, Brdd. plant response rating: 0
[16]; 16 g ai/ha
  Plant response rating, Sprangletop, Brdd.: 0
